Data from US20230219886A1, “NOVEL SELENO-NSAID ANALOGS AND USES THEREOF” (THE PENN STATE RESEARCH FOUNDATION, priority 2020, published 2023).
Where two headings read alike, the source gives them in different places.

Legend:
[1] = tested on: PANC-1 (pancreatic carcinoma); test: MTT cell viability assay, Panc-1; conditions: Homo sapiens, PANC-1, 48 h, read-out: cell viability
Protocol: (§1) Cell Culture Conditions. The cell lines were obtained from the American Type Culture Collection (ATCC). PANC-1 and Caco-2 cell lines were maintained in DMEM medium (Gibco); HT-29, HCT-116 and RKO cells were maintained in McCoy's 5A medium (Gibco); and DU-145 and H1299 cells were maintained in RPMI 1640 medium (Gibco), supplemented with 10% fetal bovine serum (FBS; Gibco) and 1% antibiotics (10.00 units/mL penicillin and 10.00 mg/mL streptomycin; Gibco). Cells were preserved in tissue culture flasks at 37° C. and 5% CO2. Culture medium was replaced every three days.
(§2) Cell Viability Assay. The effect of each compound on cell viability was tested using the MTT assay (81). Briefly, 9000 cells/well were grown in 96-well plates for 12 h. Then these cells were incubated with either DMSO (control) or nine different concentration between 0.01-50 μM of the test compounds for 24, 48, and 72 h. Three hours before the termination point, 20 μL of MTT were added to measure cellular viability. The resultant formazan crystals were dissolved in 50 μL of DMSO, and absorbance was measured at 570 nm and 630 nm wavelengths. IC50, GI50, TGI and LC50 values were calculated using OriginPro 8.5.1.
(§3) Evaluation of the antiproliferative activities of the novel molecules. […] These four cell lines were treated with each compound at three concentrations (5, 25 and 50 μM) for 48 h.

[2] = tested on: HT-29 (CRC); test: MTT cell viability assay, HT-29; conditions: for CC50: read-out: LC50; for viability at 5 µM / viability at 25 µM / viability at 50 µM: read-out: cell viability
Protocol: as §1, §2, §3

[3] = tested on: DU-145 (prostate carcinoma); test: MTT cell viability assay, DU-145; conditions: Homo sapiens, DU-145, 48 h, read-out: cell viability
Protocol: as §1, §2, §3

[4] = tested on: H1299 (lung carcinoma); test: MTT cell viability assay, H1299; conditions: Homo sapiens, NCI-H1299, 48 h, read-out: cell viability
Protocol: as §1, §2, §3

[5] = tested on: HCT-116 CRC cells; test: MTT cell viability assay, HCT-116; type: cell-based, human; conditions: Homo sapiens, read-out: IC50
Protocol: as §1, §2

[6] = tested on: CACO-2 CRC cells; test: cells; conditions: Homo sapiens
Protocol: as §1, §2

[7] = tested on: RKO CRC cells; test: cells; conditions: Homo sapiens
Protocol: as §1, §2

[8] = tested on: human CRC cells (HT-29, HCT-116, RKO and CACO-2); test: MTT assay, panel of four CRC cells; type: cell-based; conditions: 4 CRC cells
Protocol: Cell Culture Conditions. […] Culture medium was replaced every three days.
Evaluation of the antiproliferative activity of methylseleno-NSAIDs, MSA and NSAIDs alone or in combination. […] CRC cells were treated for 24, 48 and 72 h at different concentrations to stablish the dose-response curves.

[9] = tested on: NCI-60 cell lines; test: NCI-60 one-dose screen, mean of all cell lines; type: cell-based, human; conditions: 10 μM, 48 h
Source text: (§4) NCI-60 Analysis. 1a and 6a were submitted to National Cancer Institute's (NCI) Developmental Therapeutics Program (DTP) where the cytotoxicity profile was investigated across their 60 human cancer cell line panel according to the protocol available on multiple sources (71-73, 83). The COMPARE algorithm (73), was utilized to evaluate the activity profile of 6a in comparison to those of known cytotoxins established in marketed drugs and standard agent data sets in order to correlate plausible modes of action.
(§5) NCI-60 analysis. Compounds 1a, 5a and 6a were submitted to the National Cancer Institute's (NCI) Developmental Therapeutics Program (DTP). NCI-60 program consists in a panel of 60 human cancer cell lines from a variety of cancers, including refractory tumors such as lung, ovarian, CRC, breast, brain and renal cancers, and melanomas together with more treatable cancers such as leukemias (71). 1a [NSC: 803071], 5a [NSC: 820332] and 6a [NSC: 811013] were initially screened at one dose (10 μM) at 48 h. Then, NCI selected only compound 6a to perform dose-response characterization (72).

[10] = tested on: SK-MEL-28 (melanoma); test: NCI-60 one-dose screen, SK-MEL-28; type: cell-based, human; conditions: SK-MEL-28, 10 μM, 48 h
Source text: as §4, §5

[11] = tested on: DU-145 (prostate); test: NCI-60 one-dose screen, DU-145; type: cell-based, human; conditions: DU-145, 10 μM, 48 h
Source text: as §4, §5

[12] = tested on: TK-10 (renal); test: NCI-60 one-dose screen, TK-10; type: cell-based, human; conditions: TK-10, 10 μM, 48 h
Source text: as §4, §5

[13] = tested on: BT-549 (breast); test: NCI-60 one-dose screen, BT-549; type: cell-based, human; conditions: BT-549, 10 μM, 48 h
Source text: as §4, §5

SMILES: COc1ccc2c(c1)c(CC(=O)[Se]C)c(C)n2C(=O)c1ccc(Cl)cc1 [Compound 5a, Se-methyl 2-(1-(4-chlorobenzoyl)-5-methoxy-2-methyl-1H-indol-3-yl)ethane-selenoate]
- viability at 5 µM [1]: 61.9 ± 4.4%
- viability at 25 µM [1]: 66.6 ± 1.9%
- viability at 50 µM [1]: 60.2 ± 5.5%
- increase on cytotoxic potency compared with parent NSAID scaffolds [2]: three-fold
- TGI ([2]; HT-29, 24 h): >50 µM
- TGI ([2]; HT-29, 48 h): 0.6 ± 0.5 µM
- TGI ([2]; HT-29, 72 h): 5.1 ± 2.2 µM
- GI50 ([2]; Homo sapiens, HT-29, 24 h): 4.9 ± 2.2 µM
- IC50 ([2]; Homo sapiens, HT-29, 24 h): > 50 µM
- CC50 ([2]; Homo sapiens, HT-29, 24 h): > 50 µM
- GI50 ([2]; Homo sapiens, HT-29, 48 h): 3.2 ± 1.9 µM
- IC50 ([2]; Homo sapiens, HT-29, 48 h): 3.3 ± 0.9 µM
- CC50 ([2]; Homo sapiens, HT-29, 48 h): > 50 µM
- viability at 5 µM ([2]; Homo sapiens, HT-29, 48 h): 26.3 ± 2.9%
- viability at 25 µM ([2]; Homo sapiens, HT-29, 48 h): 17.9 ± 3.7%
- viability at 50 µM ([2]; Homo sapiens, HT-29, 48 h): 18 ± 3.5%
- GI50 ([2]; Homo sapiens, HT-29, 72 h): 2.9 ± 0.8 µM
- IC50 ([2]; Homo sapiens, HT-29, 72 h): 3.3 ± 0.3 µM
- CC50 ([2]; Homo sapiens, HT-29, 72 h): > 50 µM
- cytotoxicity at 5 µM ([2]; Homo sapiens, HT-29, read-out: inhibition in cell viability): 75 to 80%
- viability at 5 µM [3]: 52.1 ± 1.5%
- viability at 25 µM [3]: 34.5 ± 3%
- viability at 50 µM [3]: 27.4 ± 1.7%
- viability at 5 µM [4]: 49.5 ± 9.4%
- viability at 25 µM [4]: 37 ± 5.6%
- viability at 50 µM [4]: 32.4 ± 5.8%
- IC50 ([5]; HCT-116, 24 h): > 50 µM
- IC50 ([5]; HCT-116, 48 h): 5.6 ± 2.6 µM
- IC50 ([5]; HCT-116, 72 h): 18.7 ± 4.9 µM
- IC50 ([6]; Caco-2, 24 h): > 50 µM
- IC50 ([6]; Caco-2, 48 h): 4.2 ± 1.7 µM
- IC50 ([6]; Caco-2, 72 h): 5.5 ± 1.1 µM
- IC50 ([7]; 24 h): > 50 µM
- IC50 ([7]; 48 h): 10.1 ± 6.9 µM
- IC50 ([7]; 72 h): 11.6 ± 5.9 µM
- anti-tumoral activity versus MSA and NSAIDs as single agents or combined [8]: higher anti-tumoral activity
- GP mean value towards all cell lines [9]: 4.01%
- GP [10]: −7.85%
- GP [11]: −7.90%
- GP [12]: −58.40%
- GP [13]: −80.79%

SMILES: CC1=C(CC(=O)O)c2cc(F)ccc2/C1=C\c1ccc([S+](C)[O-])cc1 (centres unmarked) [Sulin, sulindac, reference compound]
- viability at 5 µM [1]: 88 ± 22.5%
- viability at 25 µM [1]: 90.6 ± 28.9%
- viability at 50 µM [1]: 84.5 ± 32.7%
- TGI ([2]; HT-29, 24 h): >50 µM
- TGI ([2]; HT-29, 48 h): >50 µM
- TGI ([2]; HT-29, 72 h): >50 µM
- GI50 ([2]; Homo sapiens, HT-29, 24 h): > 50 µM
- IC50 ([2]; Homo sapiens, HT-29, 24 h): > 50 µM
- GI50 ([2]; Homo sapiens, HT-29, 48 h): > 50 µM
- IC50 ([2]; Homo sapiens, HT-29, 48 h): > 50 µM
- viability at 5 µM ([2]; Homo sapiens, HT-29, 48 h): 99.1 ± 2.4%
- viability at 25 µM ([2]; Homo sapiens, HT-29, 48 h): 97.3 ± 2.1%
- viability at 50 µM ([2]; Homo sapiens, HT-29, 48 h): 98.6 ± 3.1%
- GI50 ([2]; Homo sapiens, HT-29, 72 h): > 50 µM
- IC50 ([2]; Homo sapiens, HT-29, 72 h): > 50 µM
- viability at 5 µM [3]: 82.2 ± 1.9%
- viability at 25 µM [3]: 83.2 ± 7.2%
- viability at 50 µM [3]: 85.5 ± 3.7%
- viability at 5 µM [4]: 87.5 ± 2.5%
- viability at 25 µM [4]: 72.5 ± 2.7%
- viability at 50 µM [4]: 84.9 ± 12.1%
- IC50 ([5]; HCT-116, 24 h): > 50 µM
- IC50 ([5]; HCT-116, 48 h): > 50 µM
- IC50 ([5]; HCT-116, 72 h): > 50 µM
- IC50 ([6]; Caco-2, 24 h): > 50 µM
- IC50 ([6]; Caco-2, 48 h): > 50 µM
- IC50 ([6]; Caco-2, 72 h): > 50 µM
- IC50 ([7]; 24 h): > 50 µM
- IC50 ([7]; 48 h): > 50 µM
- IC50 ([7]; 72 h): > 50 µM
